# Paper PMC6199744, “Development of Chemical Proteomics for the Folateome and Analysis of the Kinetoplastid Folateome” (ACS Infectious Diseases, 2018)
# Read-outs that look alike come from different tables or passages of the source.
# Legend:
# Format in all cases: binding
# [1] = molecular target: T1, HeLa cell extract proteins (Homo sapiens, UniProt Q15386)
# T1 construct: endogenous in cells; host or cells: HeLa cell extract
# T1 sequence (Q15386 1-1083): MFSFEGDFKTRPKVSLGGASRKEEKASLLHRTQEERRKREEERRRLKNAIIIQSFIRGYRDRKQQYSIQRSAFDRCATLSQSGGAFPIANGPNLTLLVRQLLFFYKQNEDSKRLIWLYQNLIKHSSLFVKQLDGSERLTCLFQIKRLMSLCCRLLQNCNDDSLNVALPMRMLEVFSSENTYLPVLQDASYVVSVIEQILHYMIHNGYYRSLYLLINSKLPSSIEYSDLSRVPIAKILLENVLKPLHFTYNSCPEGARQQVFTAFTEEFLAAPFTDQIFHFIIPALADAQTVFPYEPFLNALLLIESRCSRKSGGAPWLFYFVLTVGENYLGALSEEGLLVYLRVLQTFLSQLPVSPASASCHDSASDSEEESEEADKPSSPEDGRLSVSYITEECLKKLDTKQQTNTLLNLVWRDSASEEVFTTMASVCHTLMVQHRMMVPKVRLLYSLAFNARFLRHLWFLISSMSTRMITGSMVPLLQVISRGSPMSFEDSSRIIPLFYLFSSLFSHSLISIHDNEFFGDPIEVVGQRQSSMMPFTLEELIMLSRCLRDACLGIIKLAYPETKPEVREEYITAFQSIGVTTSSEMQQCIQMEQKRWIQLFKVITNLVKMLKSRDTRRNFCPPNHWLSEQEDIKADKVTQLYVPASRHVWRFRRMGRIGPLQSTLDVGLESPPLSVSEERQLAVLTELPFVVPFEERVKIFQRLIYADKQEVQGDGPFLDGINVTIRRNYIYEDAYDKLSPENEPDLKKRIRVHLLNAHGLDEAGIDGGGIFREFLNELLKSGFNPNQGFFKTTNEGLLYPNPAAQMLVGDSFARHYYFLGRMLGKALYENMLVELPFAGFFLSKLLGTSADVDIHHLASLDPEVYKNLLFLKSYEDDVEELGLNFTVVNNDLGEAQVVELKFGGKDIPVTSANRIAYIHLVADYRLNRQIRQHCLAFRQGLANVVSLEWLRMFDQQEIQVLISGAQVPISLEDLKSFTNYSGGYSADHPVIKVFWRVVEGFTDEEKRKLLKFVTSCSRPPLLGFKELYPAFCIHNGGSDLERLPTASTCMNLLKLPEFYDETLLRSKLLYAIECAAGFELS
# [2] = molecular target: T2, HeLa cell extract proteins (Homo sapiens, UniProt O00505)
# T2 construct: endogenous in cells; host or cells: HeLa cell extract
# T2 sequence (O00505 1-521): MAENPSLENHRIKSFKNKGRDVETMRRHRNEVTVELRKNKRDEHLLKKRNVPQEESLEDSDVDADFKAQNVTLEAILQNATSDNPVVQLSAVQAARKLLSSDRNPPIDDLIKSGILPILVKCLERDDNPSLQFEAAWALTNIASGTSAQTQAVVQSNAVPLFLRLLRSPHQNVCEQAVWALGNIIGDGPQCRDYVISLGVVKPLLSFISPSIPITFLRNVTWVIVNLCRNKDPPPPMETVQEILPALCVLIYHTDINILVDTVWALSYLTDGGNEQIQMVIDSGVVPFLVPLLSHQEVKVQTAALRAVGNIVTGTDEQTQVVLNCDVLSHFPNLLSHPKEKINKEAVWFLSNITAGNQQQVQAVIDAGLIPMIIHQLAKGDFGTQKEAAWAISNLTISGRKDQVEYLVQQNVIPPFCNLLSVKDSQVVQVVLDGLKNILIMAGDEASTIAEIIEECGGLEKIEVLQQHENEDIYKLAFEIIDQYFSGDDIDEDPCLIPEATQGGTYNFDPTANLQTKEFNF
# [3] = molecular target: T3, HeLa cell extract proteins (Homo sapiens, UniProt Q9NYP7)
# T3 construct: endogenous in cells; host or cells: HeLa cell extract
# T3 sequence (Q9NYP7 1-299): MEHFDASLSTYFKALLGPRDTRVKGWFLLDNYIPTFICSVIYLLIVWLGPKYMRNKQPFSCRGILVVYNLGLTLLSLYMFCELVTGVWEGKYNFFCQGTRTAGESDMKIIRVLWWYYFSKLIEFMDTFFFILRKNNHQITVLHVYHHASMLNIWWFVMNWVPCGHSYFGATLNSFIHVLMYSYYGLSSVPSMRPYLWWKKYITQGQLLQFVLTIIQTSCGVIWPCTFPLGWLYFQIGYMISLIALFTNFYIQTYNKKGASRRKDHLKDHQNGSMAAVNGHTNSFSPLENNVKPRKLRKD
# [4] = molecular target: T4, HeLa cell extract proteins (Homo sapiens, UniProt O75131)
# T4 construct: endogenous in cells; host or cells: HeLa cell extract
# T4 sequence (O75131 whole entry): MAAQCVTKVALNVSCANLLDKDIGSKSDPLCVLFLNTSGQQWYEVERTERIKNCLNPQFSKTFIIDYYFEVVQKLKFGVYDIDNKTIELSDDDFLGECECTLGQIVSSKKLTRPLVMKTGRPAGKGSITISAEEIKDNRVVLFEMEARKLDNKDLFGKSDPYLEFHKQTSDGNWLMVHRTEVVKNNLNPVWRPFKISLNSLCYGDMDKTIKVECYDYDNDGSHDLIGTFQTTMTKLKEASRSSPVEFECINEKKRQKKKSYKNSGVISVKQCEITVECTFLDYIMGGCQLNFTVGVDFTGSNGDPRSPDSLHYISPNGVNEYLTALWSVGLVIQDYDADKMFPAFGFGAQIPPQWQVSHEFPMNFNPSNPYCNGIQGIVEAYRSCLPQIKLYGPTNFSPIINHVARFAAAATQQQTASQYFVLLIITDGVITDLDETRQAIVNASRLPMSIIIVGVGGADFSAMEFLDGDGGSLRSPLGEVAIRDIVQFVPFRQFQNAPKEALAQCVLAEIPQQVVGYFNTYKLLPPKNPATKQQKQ
# [5] = molecular target: T5, HeLa cell extract proteins (Homo sapiens, UniProt P30837)
# T5 construct: endogenous in cells; host or cells: HeLa cell extract
# T5 sequence (P30837 18-517): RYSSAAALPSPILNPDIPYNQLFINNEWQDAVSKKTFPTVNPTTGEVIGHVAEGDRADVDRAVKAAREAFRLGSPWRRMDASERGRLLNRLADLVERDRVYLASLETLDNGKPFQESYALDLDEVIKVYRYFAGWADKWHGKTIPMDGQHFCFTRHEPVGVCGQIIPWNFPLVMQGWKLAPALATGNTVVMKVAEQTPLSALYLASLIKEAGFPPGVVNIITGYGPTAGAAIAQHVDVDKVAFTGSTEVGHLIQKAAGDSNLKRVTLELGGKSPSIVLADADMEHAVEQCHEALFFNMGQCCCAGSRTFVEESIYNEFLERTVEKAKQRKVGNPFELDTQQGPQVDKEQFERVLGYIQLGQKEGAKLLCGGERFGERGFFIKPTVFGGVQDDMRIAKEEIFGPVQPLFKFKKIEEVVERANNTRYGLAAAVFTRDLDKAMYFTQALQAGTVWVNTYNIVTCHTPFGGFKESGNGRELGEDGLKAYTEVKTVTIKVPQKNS
Compound,"fold changes relative to vehicle control ([1]; HeLa, protein UBE3C)","fold changes relative to vehicle control ([2]; HeLa, captured protein KPNA3)","fold changes relative to vehicle control ([3]; HeLa, protein ELOVL5)","fold changes relative to vehicle control ([4]; HeLa, protein CPNE3)","fold changes relative to vehicle control ([5]; HeLa, captured protein ALDH1B1)",fold changes relative to vehicle control [1],fold changes relative to vehicle control [2],fold changes relative to vehicle control [3],fold changes relative to vehicle control [4],fold changes relative to vehicle control [5]
"Nc1nc2c(c(=O)[nH]1)N(C=O)C(CNc1ccc(C(=O)N[C@@H](CCC(=O)O)C(=O)O)cc1)CN2 (some centres unmarked) [LEU, leucovorin]",0.91,0.9,0.95,1.23,1.03,–,–,–,–,–
"Nc1nc2[nH]cc(CCc3ccc(C(=O)N[C@@H](CCC(=O)O)C(=O)O)cc3)c2c(=O)[nH]1 [PTX, pemetrexed]",–,–,–,–,–,0.96,0.9,0.9,0.77,0.93
NCCOCCOCC(=O)Nc1nc2ncc(CNc3ccc(C(=O)NC(CCC(=O)O)C(=O)O)cc3)nc2c(=O)[nH]1 (centres unmarked) [compound 6],1.01,1.02,0.98,0.91,1.06,–,–,–,–,–
NCCCNc1ccc(C(=O)NC(CCC(=O)O)C(=O)O)cc1 (centres unmarked) [compound 7],1.04,0.87,1.02,0.85,0.95,–,–,–,–,–
